# In PubChem BioAssay AID256 (DTP/NCI, 2004):
# Where “and” joins values, the source holds several entries; their conditions need not be identical. Identical values can stand only once. Inconclusive results and toxic doses are left out.
# Test system: CD2F1 mice, L1210 leukemia ip, survival T/C
# Test: NCI In Vivo Anticancer Drug Screen. Data for tumor model L1210 Leukemia (intraperitoneal) in CD2F1 (CDF1) mice
# Settings: higher = longer survival
# In short: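 Vehicle-treated tumor-bearing mice served as controls (C) for compound-treated mice (T). Reported figure is T divided by C.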
# [1] = endpoint: mean survival time, dose: 100.0 mg/kg/injection, schedule: Q01DX009 (ip), vehicle: saline with Tween-80
# [2] = endpoint: mean survival time, dose: 200.0 mg/kg/injection, schedule: Q01DX009 (ip), vehicle: saline with Tween-80
# [3] = endpoint: mean survival time, dose: 400.0 mg/kg/injection, schedule: Q01DX009 (ip), vehicle: saline with Tween-80
# [4] = endpoint: mean survival time, dose: 100.0 mg/kg/injection, schedule: Q01DX001 (ip), vehicle: saline
# [5] = endpoint: mean survival time, dose: 200.0 mg/kg/injection, schedule: Q01DX001 (ip), vehicle: saline
# [6] = endpoint: mean survival time, dose: 400.0 mg/kg/injection, schedule: Q01DX001 (ip), vehicle: saline
# [7] = endpoint: mean survival time, dose: 50.0 mg/kg/injection, schedule: Q01DX009 (ip), vehicle: Klucel (hydroxypropylcellulose) (HPC)
# [8] = endpoint: mean survival time, dose: 100.0 mg/kg/injection, schedule: Q04DX003 (ip), vehicle: saline with Tween-80
# [9] = endpoint: mean survival time, dose: 200.0 mg/kg/injection, schedule: Q04DX003 (ip), vehicle: saline with Tween-80
# [10] = endpoint: mean survival time, dose: 400.0 mg/kg/injection, schedule: Q04DX003 (ip), vehicle: saline with Tween-80
# [11] = endpoint: mean survival time, dose: 100.0 mg/kg/injection, schedule: Q01DX001 (ip), vehicle: saline with Tween-80
# [12] = endpoint: mean survival time, dose: 400.0 mg/kg/injection, schedule: Q01DX001 (ip), vehicle: saline with Tween-80
# [13] = endpoint: mean survival time, dose: 12.5 mg/kg/injection, schedule: Q01DX009 (ip), vehicle: saline with Tween-80
# [14] = endpoint: mean survival time, dose: 25.0 mg/kg/injection, schedule: Q01DX009 (ip), vehicle: saline with Tween-80
# [15] = endpoint: mean survival time, dose: 50.0 mg/kg/injection, schedule: Q01DX009 (ip), vehicle: saline with Tween-80
smiles,measurement,setting,value
Nc1cc(Cl)ccc1C(=O)O,T/C,[1],103 % of control
same,T/C,[2],104 % of control
same,T/C,[3],86 % of control
CCCN(CCC)S(=O)(=O)c1ccc(NC(=O)Oc2ccc([N+](=O)[O-])cc2)cc1,T/C,[4],94 % of control
same,T/C,[5],100 % of control
same,T/C,[6],95 % of control
CC1C(O)=C(c2ccccc2)P(=O)(Cc2ccccc2)C1C (stereo not drawn),T/C,[7],104 % of control
same,T/C,"endpoint: mean survival time, dose: 100.0 mg/kg/injection, schedule: Q01DX009 (ip), vehicle: Klucel (hydroxypropylcellulose) (HPC)",93 % of control
same,T/C,"endpoint: mean survival time, dose: 200.0 mg/kg/injection, schedule: Q01DX009 (ip), vehicle: Klucel (hydroxypropylcellulose) (HPC)",93 % of control
CCCCCCCCCCCCCCCCOc1ccccc1CNc1cccc(S(=O)(=O)F)c1,T/C,[1],94 % of control
same,T/C,[8],95 % of control
same,T/C,[2],91 % of control
same,T/C,[9],94 % of control
same,T/C,[3],87 % of control
same,T/C,[10],100 % of control
C=C(C)C(=NC(C)(C)C)Nc1ccccc1,T/C,"endpoint: median survival time, dose: 6.25 mg/kg/injection, schedule: Q01DX009 (ip), vehicle: saline with Tween-80",105 % of control
same,T/C,"endpoint: median survival time, dose: 12.5 mg/kg/injection, schedule: Q01DX009 (ip), vehicle: saline with Tween-80",110 % of control
same,T/C,"endpoint: median survival time, dose: 25.0 mg/kg/injection, schedule: Q01DX009 (ip), vehicle: saline with Tween-80",108 % of control
same,T/C,"endpoint: median survival time, dose: 50.0 mg/kg/injection, schedule: Q01DX009 (ip), vehicle: saline with Tween-80",108 % of control
same,T/C,"endpoint: median survival time, dose: 100.0 mg/kg/injection, schedule: Q01DX009 (ip), vehicle: saline with Tween-80",112 % of control
same,T/C,"endpoint: median survival time, dose: 200.0 mg/kg/injection, schedule: Q01DX009 (ip), vehicle: saline with Tween-80",121 % of control
CC1=C(C)CC([P+](c2ccccc2)(c2ccccc2)c2ccccc2)CC1 (stereo not drawn),T/C,"endpoint: mean survival time, dose: 6.25 mg/kg/injection, schedule: Q01DX001 (ip), vehicle: saline with Tween-80",98 % of control
same,T/C,"endpoint: mean survival time, dose: 12.5 mg/kg/injection, schedule: Q01DX001 (ip), vehicle: saline with Tween-80",90 % of control
same,T/C,"endpoint: mean survival time, dose: 25.0 mg/kg/injection, schedule: Q01DX001 (ip), vehicle: saline with Tween-80",94 % of control
O=[N+]([O-])c1ccc(N/N=C(\CCl)c2ccccc2)c([N+](=O)[O-])c1,T/C,[11],92 % of control
same,T/C,"endpoint: mean survival time, dose: 200.0 mg/kg/injection, schedule: Q01DX001 (ip), vehicle: saline with Tween-80",97 % of control
same,T/C,[12],92 % of control
C=C(Br)CNC(=O)C(C)(C)C,T/C,[13],96 % of control
same,T/C,[14],96 % of control
same,T/C,[15],100 % of control
same,T/C,[1],93 % of control
CCCOS(=O)(=O)c1ccc(Cl)c([N+](=O)[O-])c1,T/C,[15],97 % of control
same,T/C,[1],90 % of control
same,T/C,[8],94 % of control
same,T/C,[9],89 % of control
CN(CC(=O)O)C(=S)c1ccccc1,T/C,[8],98 % of control
same,T/C,[9],104 % of control
same,T/C,[10],95 % of control
CC(=O)Oc1ccc([N+](=O)[O-])cc1[N+](=O)[O-],T/C,"endpoint: mean survival time, dose: 25.0 mg/kg/injection, schedule: Q04DX002 (ip), vehicle: Klucel (hydroxypropylcellulose) (HPC)",93 % of control
c1ccc(CCCCc2ccc3ccccc3n2)cc1,T/C,[1],93 % of control
same,T/C,[8],106 % of control
same,T/C,[2],102 % of control
same,T/C,[9],100 % of control
same,T/C,[3],98 % of control
same,T/C,[10],100 % of control
CC1C=NNC1=O (stereo not drawn),T/C,"endpoint: mean survival time, dose: 8.0 mg/kg/injection, schedule: Q03HX016 (ip), vehicle: saline",101 % of control
same,T/C,"endpoint: mean survival time, dose: 8.0 mg/kg/injection, schedule: Q03HX024 (ip), vehicle: saline",96 % of control
same,T/C,"endpoint: mean survival time, dose: 12.5 mg/kg/injection, schedule: Q01DX009 (ip), vehicle: Klucel (hydroxypropylcellulose) (HPC)",97 % of control
same,T/C,"endpoint: mean survival time, dose: 16.0 mg/kg/injection, schedule: Q03HX016 (ip), vehicle: saline",98 % of control
same,T/C,"endpoint: mean survival time, dose: 16.0 mg/kg/injection, schedule: Q03HX024 (ip), vehicle: saline",100 % of control
same,T/C,"endpoint: mean survival time, dose: 25.0 mg/kg/injection, schedule: Q01DX009 (ip), vehicle: Klucel (hydroxypropylcellulose) (HPC)",110 % of control
same,T/C,"endpoint: mean survival time, dose: 32.0 mg/kg/injection, schedule: Q03HX016 (ip), vehicle: saline",112 % of control
same,T/C,"endpoint: mean survival time, dose: 32.0 mg/kg/injection, schedule: Q03HX024 (ip), vehicle: saline",116 % of control
same,T/C,[7],111 % of control
same,T/C,"endpoint: mean survival time, dose: 64.0 mg/kg/injection, schedule: Q01DX009 (ip), vehicle: saline",109 % of control
same,T/C,"endpoint: mean survival time, dose: 64.0 mg/kg/injection, schedule: Q03HX016 (ip), vehicle: saline",110 % of control
same,T/C,"endpoint: mean survival time, dose: 64.0 mg/kg/injection, schedule: Q03HX024 (ip), vehicle: saline",108 % of control
same,T/C,"endpoint: mean survival time, dose: 64.0 mg/kg/injection, schedule: Q04DX003 (ip), vehicle: saline",103 % of control
same,T/C,"endpoint: mean survival time, dose: 64.0 mg/kg/injection, schedule: Q08DX002 (ip), vehicle: saline",102 % of control
same,T/C,"endpoint: mean survival time, dose: 100.0 mg/kg/injection, schedule: Q01DX009 (ip), vehicle: saline",117 % of control
same,T/C,"endpoint: mean survival time, dose: 128.0 mg/kg/injection, schedule: Q01DX009 (ip), vehicle: saline",118 % of control
same,T/C,"endpoint: mean survival time, dose: 128.0 mg/kg/injection, schedule: Q04DX003 (ip), vehicle: saline",103 % of control
same,T/C,"endpoint: mean survival time, dose: 128.0 mg/kg/injection, schedule: Q08DX002 (ip), vehicle: saline",101 % of control
same,T/C,"endpoint: mean survival time, dose: 200.0 mg/kg/injection, schedule: Q01DX009 (ip), vehicle: saline",123 % of control
same,T/C,"endpoint: mean survival time, dose: 256.0 mg/kg/injection, schedule: Q04DX003 (ip), vehicle: saline",110 % of control
same,T/C,"endpoint: mean survival time, dose: 256.0 mg/kg/injection, schedule: Q08DX002 (ip), vehicle: saline",102 % of control
same,T/C,"endpoint: mean survival time, dose: 400.0 mg/kg/injection, schedule: Q01DX009 (ip), vehicle: Klucel (hydroxypropylcellulose) (HPC)",155 % of control
same,T/C,"endpoint: mean survival time, dose: 512.0 mg/kg/injection, schedule: Q04DX003 (ip), vehicle: saline",103 % of control
same,T/C,"endpoint: mean survival time, dose: 512.0 mg/kg/injection, schedule: Q08DX002 (ip), vehicle: saline",106 % of control
NC1CS(=O)(=O)CC1O (stereo not drawn),T/C,[8],98 % of control
same,T/C,[9],96 % of control
same,T/C,[10],95 % of control
NC(C(=O)[O-])C(=O)[O-].NC1CCCCC1N.[Pt+4],T/C,"endpoint: median survival time, dose: 1.0 mg/kg/injection, schedule: Q04DX003 (ip), vehicle: water",109 % of control
same,T/C,"endpoint: median survival time, dose: 2.0 mg/kg/injection, schedule: Q04DX003 (ip), vehicle: water",124 % of control
COc1ccc([N+](=O)[O-])cc1NC(=O)Nc1cccc(C(F)(F)F)c1,T/C,"endpoint: mean survival time, dose: 50.0 mg/kg/injection, schedule: Q01DX001 (ip), vehicle: Klucel (hydroxypropylcellulose) (HPC)",101 % of control
same,T/C,"endpoint: mean survival time, dose: 100.0 mg/kg/injection, schedule: Q01DX001 (ip), vehicle: Klucel (hydroxypropylcellulose) (HPC)",96 % of control
same,T/C,"endpoint: mean survival time, dose: 200.0 mg/kg/injection, schedule: Q01DX001 (ip), vehicle: Klucel (hydroxypropylcellulose) (HPC)",93 % of control
COc1ccc2[nH]cc(CCN(C)C)c2c1,T/C,[13],94 % of control
same,T/C,"endpoint: mean survival time, dose: 12.5 mg/kg/injection, schedule: Q04DX003 (ip), vehicle: saline with Tween-80",100 % of control
same,T/C,[14],91 % of control
same,T/C,"endpoint: mean survival time, dose: 25.0 mg/kg/injection, schedule: Q04DX003 (ip), vehicle: saline with Tween-80",95 % of control
same,T/C,[15],92 % of control
same,T/C,"endpoint: mean survival time, dose: 50.0 mg/kg/injection, schedule: Q04DX003 (ip), vehicle: saline with Tween-80",96 % of control
O=C(CBr)c1cc(-c2ccc(Cl)cc2)nc2c(Cl)cc(Cl)cc12,T/C,[4],91 % of control
same,T/C,[5],97 % of control
same,T/C,[6],103 % of control
CC1=CC(=O)CC(C)C2CC(C(C)C)CC12 (stereo not drawn),T/C,[4],101 % of control
same,T/C,[5],100 % of control
same,T/C,[6],105 % of control
Cc1cccc(/C=N/OCCC(C)C)n1,T/C,[15],102 % of control
same,T/C,[1],96 % of control
same,T/C,[8],93 % of control
same,T/C,[2],102 % of control
same,T/C,[9],89 % of control
COC1=[C]([Hg][Br])C(OC)OC1OC (stereo not drawn),T/C,"endpoint: mean survival time, dose: 5.0 mg/kg/injection, schedule: Q01DX001 (ip), vehicle: saline",98 % of control
same,T/C,"endpoint: mean survival time, dose: 10.0 mg/kg/injection, schedule: Q01DX001 (ip), vehicle: saline",102 % of control
same,T/C,"endpoint: mean survival time, dose: 20.0 mg/kg/injection, schedule: Q01DX001 (ip), vehicle: saline",110 % of control
O=[N+]([O-])O,T/C,[15],86 % of control
same,T/C,[1],86 % of control
O=NN(CCF)C(=O)NC1CCC(NC(=O)N(CCF)N=O)CC1 (stereo not drawn),T/C,"endpoint: mean survival time, dose: 3.13 mg/kg/injection, schedule: Q01DX009 (ip), vehicle: saline with Tween-80",117 % of control
same,T/C,[13],240 % of control
same,T/C,[14],273 % of control and 289 % of control
same,T/C,[15],234 % of control
O=C=Nc1ccc(N=Nc2ccccc2)cc1,T/C,[14],89 % of control
same,T/C,[15],88 % of control
same,T/C,[11],95 % of control
same,T/C,[1],98 % of control
same,T/C,[12],90 % of control
